Measured values: ChEMBL document CHEMBL4433230, “Revisiting microtubule targeting agents: α-Tubulin and the pironetin binding site as unexplored targets for cancer therapeutics” (Bioorg Med Chem Lett, 2019)

Columns and labels:
P388 [1] = experiment: Cytotoxicity against mouse P388 cells assessed as reduction in growth after 24 hrs by MTT assay; type: functional; conditions: P388, 24 h
Mus musculus = experiment: Immunosuppressive activity in […] mouse injected with C57BL/6 mouse EL4 cells assessed as cytotoxic T cells generation by measuring specific lysis level at 5 mg/kg, ip treated for 2 to 15 days and measured on day 16 by gamma scintillation counter method (reference value: 18.6 +/- 4.15%); type: functional
HL-60 = experiment: Cytotoxicity against human HL60 cells assessed as reduction in growth after 24 hrs by MTT assay; type: functional; conditions: HL-60, 24 h
A549 = experiment: Cytotoxicity against human A549 cells assessed as reduction in growth after 4 days by HCS assay; type: functional; conditions: A549, 96 h
NCI-H69 = experiment: Cytotoxicity against human H69 cells assessed as reduction in growth after 7 days by MTT assay; type: functional; conditions: NCI-H69, 168 h
K562/Adr = experiment: Cytotoxicity against human K562/ADR cells assessed as reduction in growth after 4 days by MTT assay; type: functional; conditions: 96 h
[2] = Toxicity in CDF1-SLC mouse injected with mouse P388 cells assessed as change in body weight at 3.13 mg/kg, ip treated for 5 days and measured on day 1 and 10 (reference value: 5.3g); type: organism-based; conditions: in vivo, 120 h
P388 [3] = experiment: Antitumor activity in CDF1-SLC mouse injected with mouse P388 cells assessed as mean survival time at 3.13 mg/kg, ip treated for 5 days (reference value: 11.2 +/- 0.84 days); type: functional
MCF7 = experiment: Cytotoxicity against human MCF7 cells assessed as reduction in growth after 3 days by MTT assay; type: functional; conditions: MCF7, 72 h
T98G = experiment: Cytotoxicity against human T98G cells assessed as reduction in growth after 4 days by MTS assay; type: functional; conditions: 96 h
DC3F = experiment: Cytotoxicity against hamster DC-3F cells assessed as reduction in growth after 4 days by HCS assay; type: functional; conditions: Cricetulus griseus, 96 h
MDA-MB-231 = experiment: Cytotoxicity against human MDA-MB-231 cells assessed as reduction in growth after 4 days by HCS assay; type: functional; conditions: MDA-MB-231, 96 h
EL4 = experiment: Cytotoxicity against C57BL/6 mouse EL4 cells assessed as reduction in growth after 3 days; type: functional; conditions: C57BL/6, EL4, 72 h
[4] = Toxicity in CDF1-SLC mouse injected with mouse P388 cells assessed as change in body weight at 1.56 mg/kg, ip treated for 5 days and measured on day 1 and 10 (reference value: 5.3g); type: organism-based; conditions: in vivo, 120 h
[5] = Cytotoxicity against human H69/VDS cells assessed as reduction in growth after 7 days by MTT assay; type: functional; conditions: 168 h
P388 [6] = experiment: Antitumor activity in CDF1-SLC mouse injected with mouse P388 cells assessed as mean survival time at 1.56 mg/kg, ip treated for 5 days (reference value: 11.2 +/- 0.84 days); type: functional
[7] = Toxicity in CDF1-SLC mouse injected with mouse P388 cells assessed as change in body weight at 0.78 mg/kg, ip treated for 5 days and measured on day 1 and 10 (reference value: 5.3g); type: organism-based; conditions: in vivo, 120 h
K562 = experiment: Cytotoxicity against human K562 cells assessed as reduction in growth after 4 days by MTT assay; type: functional; conditions: K562, 96 h
[8] = Cytotoxicity against hamster VCRd5L cells assessed as reduction in growth after 4 days by HCS assay; type: functional; conditions: Cricetulus griseus, 96 h
[9] = Toxicity in CDF1-SLC mouse injected with mouse P388 cells assessed as change in body weight at 6.25 mg/kg, ip treated for 5 days and measured on day 1 and 10 (reference value: 5.3g); type: organism-based; conditions: in vivo, 120 h
P388 [10] = experiment: Antitumor activity in CDF1-SLC mouse injected with mouse P388 cells assessed as mean survival time at 0.78 mg/kg, ip treated for 5 days (reference value: 11.2 +/- 0.84 days); type: functional
HeLa = experiment: Cytotoxicity against human HeLa cells assessed as reduction in growth; type: functional
[11] = Cytotoxicity against human H69/Txl cells assessed as reduction in growth after 7 days by MTT assay; type: functional; conditions: 168 h
P388 [12] = experiment: Antitumor activity in CDF1-SLC mouse injected with mouse P388 cells assessed as mean survival time at 6.25 mg/kg, ip treated for 5 days (reference value: 11.2 +/- 0.84 days); type: functional
[13] = Cytotoxicity against rat KNRK cells assessed as reduction in growth; type: functional

C/C=C/C[C@H](C)[C@@H](OC)[C@@H](C)[C@H](O)C[C@H]1OC(=O)C=C[C@H]1CC [PIRONETIN]
GI50 (P388 [1]): 100 nM | Activity (Mus musculus): 7.4% | GI50 (HL-60): 20 nM | GI50 (A549): 7.5 nM | GI50 (NCI-H69): 17.5 nM | GI50 (K562/Adr): 16 nM | Activity [2]: -0.1 g | MST (P388 [3]): 13.3 days | GI50 (MCF7): 5 nM | GI50 (T98G): 7.5 nM | GI50 (DC3F): 9.5 nM | GI50 (MDA-MB-231): 4.6 nM | GI50 (EL4): 15 nM | Activity [4]: 0.5 g | GI50 [5]: 20.3 nM | MST (P388 [6]): 11.7 days | Activity [7]: 3.7 g | GI50 (K562): 17.3 nM | GI50 [8]: 31 nM | Activity [9]: -2.6 g | MST (P388 [10]): 11.2 days | GI50 (HeLa): 30 nM | GI50 [11]: 11.5 nM | MST (P388 [12]): 14.3 days | GI50 [13]: 30 nM
